According to PMC6848746 (Psychopharmacology, 2019):
Where two headings read alike, the source gives them in different places.

Legend:
[1] = biological target: β1 (Homo sapiens, UniProt P08588); assay: Radioligand binding
[2] = biological target: D1 (Homo sapiens, UniProt P21728); assay: Radioligand binding
[3] = tested on: 5-HT receptors; assay: Primary binding assay at 10 μM, 5-HT receptors; set-up: species or system Human
[4] = biological target: DAT (Homo sapiens, UniProt Q01959); conditions: HEK cells expressing cloned transporters, cited from earlier work; for release of preloaded [3H]DA: at 100 μM, ref Simmler et al. 2014b, Luethi et al. 2017
DAT (Homo sapiens, UniProt Q01959), sequence (Q01959 whole entry): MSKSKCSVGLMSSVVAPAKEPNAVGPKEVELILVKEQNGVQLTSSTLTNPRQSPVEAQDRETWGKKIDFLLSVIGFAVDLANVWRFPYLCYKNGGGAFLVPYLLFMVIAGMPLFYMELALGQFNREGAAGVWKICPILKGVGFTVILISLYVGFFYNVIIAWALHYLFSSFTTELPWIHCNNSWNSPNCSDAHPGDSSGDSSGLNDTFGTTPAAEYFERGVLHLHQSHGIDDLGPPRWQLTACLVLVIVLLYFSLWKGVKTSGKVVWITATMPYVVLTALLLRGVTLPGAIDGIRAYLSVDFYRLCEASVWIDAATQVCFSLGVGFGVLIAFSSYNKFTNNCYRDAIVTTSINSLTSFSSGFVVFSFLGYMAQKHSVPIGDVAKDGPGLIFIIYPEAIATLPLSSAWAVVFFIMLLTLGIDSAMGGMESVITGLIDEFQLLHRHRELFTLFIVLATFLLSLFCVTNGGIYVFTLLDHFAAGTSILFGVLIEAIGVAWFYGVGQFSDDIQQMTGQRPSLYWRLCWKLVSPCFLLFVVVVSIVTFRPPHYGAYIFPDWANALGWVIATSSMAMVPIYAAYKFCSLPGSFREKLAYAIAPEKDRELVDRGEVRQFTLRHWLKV

[5] = biological target: NET (Homo sapiens, UniProt P23975); conditions: HEK cells expressing cloned transporters, cited from earlier work; for release of preloaded [3H]NE: at 100 μM, ref Simmler et al. 2014b, Luethi et al. 2017
NET (Homo sapiens, UniProt P23975), sequence (P23975 whole entry): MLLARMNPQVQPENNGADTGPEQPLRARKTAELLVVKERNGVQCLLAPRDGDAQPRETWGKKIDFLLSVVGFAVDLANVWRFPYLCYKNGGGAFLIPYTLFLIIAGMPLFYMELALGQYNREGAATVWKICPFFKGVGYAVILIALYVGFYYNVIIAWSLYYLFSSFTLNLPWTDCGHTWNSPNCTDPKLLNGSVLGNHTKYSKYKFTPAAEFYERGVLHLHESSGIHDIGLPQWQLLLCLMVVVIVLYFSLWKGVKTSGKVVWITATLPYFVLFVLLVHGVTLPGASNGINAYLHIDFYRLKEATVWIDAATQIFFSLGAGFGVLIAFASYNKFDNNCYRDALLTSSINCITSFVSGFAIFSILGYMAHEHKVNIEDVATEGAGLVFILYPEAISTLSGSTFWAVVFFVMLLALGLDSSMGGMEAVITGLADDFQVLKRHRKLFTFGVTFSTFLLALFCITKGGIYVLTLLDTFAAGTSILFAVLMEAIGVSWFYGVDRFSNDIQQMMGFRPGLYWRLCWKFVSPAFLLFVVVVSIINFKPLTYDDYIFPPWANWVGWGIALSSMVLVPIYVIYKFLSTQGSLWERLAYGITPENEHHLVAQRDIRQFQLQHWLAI

[6] = biological target: SERT (Homo sapiens, UniProt P31645); conditions: HEK cells expressing cloned transporters, cited from earlier work; for release of preloaded [3H]5-HT: at 100 μM, ref Simmler et al. 2014b, Luethi et al. 2017
SERT, sequence (P31645 whole entry): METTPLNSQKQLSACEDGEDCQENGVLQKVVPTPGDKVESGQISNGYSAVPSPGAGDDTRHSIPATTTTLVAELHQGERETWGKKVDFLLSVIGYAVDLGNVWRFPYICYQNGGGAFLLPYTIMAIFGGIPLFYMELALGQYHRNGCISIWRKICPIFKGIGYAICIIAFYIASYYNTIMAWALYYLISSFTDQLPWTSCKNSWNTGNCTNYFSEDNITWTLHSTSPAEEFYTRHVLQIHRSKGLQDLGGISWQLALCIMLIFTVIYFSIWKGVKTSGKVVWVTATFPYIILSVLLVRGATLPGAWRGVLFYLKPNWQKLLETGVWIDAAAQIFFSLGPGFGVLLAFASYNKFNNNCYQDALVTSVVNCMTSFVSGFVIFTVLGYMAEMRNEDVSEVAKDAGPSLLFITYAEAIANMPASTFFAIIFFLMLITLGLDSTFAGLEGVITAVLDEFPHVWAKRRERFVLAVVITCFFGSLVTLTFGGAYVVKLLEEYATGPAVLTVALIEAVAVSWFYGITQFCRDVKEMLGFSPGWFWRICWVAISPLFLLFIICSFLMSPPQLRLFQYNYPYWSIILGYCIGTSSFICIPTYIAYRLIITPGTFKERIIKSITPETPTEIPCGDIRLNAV

[7] = tested on: DAT; conditions: synaptosomal uptake assay; ref Johnson et al. (1991a); cited from earlier work
[8] = tested on: rats; conditions: cited from earlier work
[9] = tested on: NET; assay: NET-mediated release of [3H]MPP+ from rat brain synaptosomes; type: biochemical; conditions: relative to SERT, synaptosomal release
[10] = tested on: NET; conditions: synaptosomal uptake assay; ref Johnson et al. (1991a); cited from earlier work

D1, sequence (P21728 whole entry): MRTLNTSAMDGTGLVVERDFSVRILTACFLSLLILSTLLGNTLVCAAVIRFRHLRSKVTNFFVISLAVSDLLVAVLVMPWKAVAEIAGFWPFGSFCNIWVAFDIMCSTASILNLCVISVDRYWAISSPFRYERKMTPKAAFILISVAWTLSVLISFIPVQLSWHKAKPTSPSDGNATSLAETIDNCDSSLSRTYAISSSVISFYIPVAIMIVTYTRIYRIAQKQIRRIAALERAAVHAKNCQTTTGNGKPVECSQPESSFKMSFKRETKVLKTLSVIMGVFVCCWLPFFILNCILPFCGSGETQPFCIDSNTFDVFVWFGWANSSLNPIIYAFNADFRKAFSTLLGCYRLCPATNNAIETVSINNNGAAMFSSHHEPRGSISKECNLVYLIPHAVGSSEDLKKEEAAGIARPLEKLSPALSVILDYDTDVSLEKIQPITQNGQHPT
β1, sequence (P08588 whole entry): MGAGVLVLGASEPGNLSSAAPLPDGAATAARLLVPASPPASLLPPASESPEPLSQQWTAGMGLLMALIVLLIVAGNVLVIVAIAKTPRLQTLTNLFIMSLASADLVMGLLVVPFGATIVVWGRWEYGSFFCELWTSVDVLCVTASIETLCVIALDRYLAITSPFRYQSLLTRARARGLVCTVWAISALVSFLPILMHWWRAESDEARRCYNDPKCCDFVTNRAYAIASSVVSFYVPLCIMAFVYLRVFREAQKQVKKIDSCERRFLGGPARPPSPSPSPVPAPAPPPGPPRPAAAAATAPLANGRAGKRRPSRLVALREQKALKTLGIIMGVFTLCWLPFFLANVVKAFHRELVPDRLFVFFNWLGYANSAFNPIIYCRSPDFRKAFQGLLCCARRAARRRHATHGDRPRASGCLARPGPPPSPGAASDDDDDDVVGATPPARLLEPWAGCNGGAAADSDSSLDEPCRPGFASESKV

Compound | Ki [1] | Ki [2] | displacement at 5-HT receptors [3] | release of preloaded [3H]DA [4] | EC50 ([4]; read-out: release of preloaded [3H]DA EC50, ref Eshleman et al. 2017) | release of preloaded [3H]NE [5] | EC50 ([5]; read-out: release of preloaded [3H]NE EC50, ref Eshleman et al. 2017) | selectivity for 5-HT vs. DA release ([6]; ref Eshleman et al. 2017) | release of preloaded [3H]5-HT [6] | EC50 ([6]; read-out: release of preloaded [3H]5-HT EC50, ref Eshleman et al. 2017) | fold difference [3H]5-HT uptake IC50 vs [3H]DA uptake IC50 [7] | place conditioning effect ([8]; ref Gatch et al. 2016) | fold lower release potency at NET [9] | fold difference [3H]5-HT uptake IC50 vs [3H]NE uptake IC50 [10] | place conditioning effect ([8]; ref Marona-Lewicka et al. 1996)
NC1Cc2cc3c(cc2C1)OCO3 [MDAI, 5,6-methylenedioxy-2-aminoindan] | > 10 µM | > 10 µM | < 50% | not affected | 24 µM | released | 0.57 µM | ~ 10 fold | released | 2.9 µM | 10 fold | conditioned place preference | – | – | –
COc1ccc2c(c1)CC(N)C2 (stereo not drawn) [5-MeO-AI, 5-methoxy-2-aminoindan] | > 10 µM | > 10 µM | – | – | – | – | – | – | – | – | – | – | 6 fold | – | –
NC1Cc2ccccc2C1 [2-AI, 2-aminoindan] | > 10 µM | > 10 µM | < 50% | induced the release | – | induced the release | – | – | – | – | – | – | – | – | –
COc1cc2c(cc1C)CC(N)C2 (stereo not drawn) [MMAI, 5-methoxy-6-methyl-2-aminoindan] | > 10 µM | > 10 µM | – | – | – | – | – | – | released | – | 93 fold | – | 100 fold | 55 fold | conditioned place aversion
